From patent US20080318945A1, “Novel Compounds” (priority 2005, published 2008)

Key:
TRPV4 channel receptors = molecular target: T1, TRPV4 channel receptors (Bos taurus, UniProt A0A8F4X677); assay: Ca2+ influx by Fura-2 fluorescence on FlexStation in bovine articular chondrocytes; type: cell-based
T1 construct: obtained using this method in bovine articular chondrocytes; endogenous in cells; host or cells: bovine articular chondrocytes
Text: Ca^2+ influx mediated through TRPV4 channel receptors can be measured using articular chondrocytes from such species as, but not limited to, human, rat, canine, rabbit, monkey, and bovine, using standard techniques in the art such as, but not limited to, Fura-2 (Invitrogen/Molecular Probes, Eugene, Oreg.) fluorescence using a FlexStation (manufactured by Molecular Devices, Sunnyvale, Calif.). Table 1 lists biological data for several representative compounds obtained using this method in bovine articular chondrocytes.
(§1) All exemplary compounds of the present invention were assessed using at least one of the biological assays presented above. Compounds presented in the Examples had EC50 values of about 0.0001 μM to 1 μM as measured by Flex Station using bovine articular chondrocytes and pEC50 values between about 6.0 to 9.1 as measured by FLIPR assay using TRPV4 expressing HEK cells.

TRPV4 channel receptor = molecular target: T2, TRPV4 channel receptor (Homo sapiens, UniProt Q9HBA0); assay: FLIPR assay using TRPV4 expressing HEK cells; type: cell-based; conditions: FLIPR method; read-out: pEC50 values (converted)
T2 construct: expressed in transfected cells; host or cells: HEK cells
Text: Other techniques used to measure TRPV4 channel receptor activation in chondrocytes include, but are not limited to: FLIPR assay, measuring a compound's capability to reduce the amount of ADAMTSs produced and/or released in response to a catabolic stimulus by a cell comprising a TRPV4 channel receptor; measuring a compound's capability to reduce the amount of MMPs produced and/or released in response to a catabolic stimulus by a cell comprising a TRPV4 channel receptor; measuring a compound's capability to effect the amount of nitric oxide (NO) produced in response to a catabolic stimulus by a cell comprising a TRPV4 channel receptor; and measuring a compound's capability to attenuate the inhibition of matrix synthesis in response to a catabolic stimulus by a cell comprising a TRPV4 channel receptor.
as §1

T2 sequence (Q9HBA0 whole entry): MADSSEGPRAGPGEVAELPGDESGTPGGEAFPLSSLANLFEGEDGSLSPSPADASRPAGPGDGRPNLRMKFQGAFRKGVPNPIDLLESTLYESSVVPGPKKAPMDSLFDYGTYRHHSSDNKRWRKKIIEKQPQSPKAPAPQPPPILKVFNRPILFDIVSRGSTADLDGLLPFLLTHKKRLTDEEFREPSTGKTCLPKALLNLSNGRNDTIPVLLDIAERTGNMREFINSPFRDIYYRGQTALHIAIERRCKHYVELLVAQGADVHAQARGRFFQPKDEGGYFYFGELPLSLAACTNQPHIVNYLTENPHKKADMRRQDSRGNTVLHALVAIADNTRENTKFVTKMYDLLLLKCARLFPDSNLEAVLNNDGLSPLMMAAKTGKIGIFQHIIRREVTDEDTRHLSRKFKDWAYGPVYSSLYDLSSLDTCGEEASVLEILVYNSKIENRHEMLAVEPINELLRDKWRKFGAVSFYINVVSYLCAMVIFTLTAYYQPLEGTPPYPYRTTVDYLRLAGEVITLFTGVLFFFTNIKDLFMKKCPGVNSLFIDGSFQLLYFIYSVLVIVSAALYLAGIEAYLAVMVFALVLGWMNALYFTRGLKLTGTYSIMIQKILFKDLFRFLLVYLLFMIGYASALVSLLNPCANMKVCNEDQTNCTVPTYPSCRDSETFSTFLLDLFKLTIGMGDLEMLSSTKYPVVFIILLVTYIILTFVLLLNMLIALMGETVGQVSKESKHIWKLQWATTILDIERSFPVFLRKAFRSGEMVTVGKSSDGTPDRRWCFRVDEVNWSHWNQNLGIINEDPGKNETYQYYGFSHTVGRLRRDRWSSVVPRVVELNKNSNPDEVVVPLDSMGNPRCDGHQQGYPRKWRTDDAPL
T1 sequence (A0A8F4X677 1-871): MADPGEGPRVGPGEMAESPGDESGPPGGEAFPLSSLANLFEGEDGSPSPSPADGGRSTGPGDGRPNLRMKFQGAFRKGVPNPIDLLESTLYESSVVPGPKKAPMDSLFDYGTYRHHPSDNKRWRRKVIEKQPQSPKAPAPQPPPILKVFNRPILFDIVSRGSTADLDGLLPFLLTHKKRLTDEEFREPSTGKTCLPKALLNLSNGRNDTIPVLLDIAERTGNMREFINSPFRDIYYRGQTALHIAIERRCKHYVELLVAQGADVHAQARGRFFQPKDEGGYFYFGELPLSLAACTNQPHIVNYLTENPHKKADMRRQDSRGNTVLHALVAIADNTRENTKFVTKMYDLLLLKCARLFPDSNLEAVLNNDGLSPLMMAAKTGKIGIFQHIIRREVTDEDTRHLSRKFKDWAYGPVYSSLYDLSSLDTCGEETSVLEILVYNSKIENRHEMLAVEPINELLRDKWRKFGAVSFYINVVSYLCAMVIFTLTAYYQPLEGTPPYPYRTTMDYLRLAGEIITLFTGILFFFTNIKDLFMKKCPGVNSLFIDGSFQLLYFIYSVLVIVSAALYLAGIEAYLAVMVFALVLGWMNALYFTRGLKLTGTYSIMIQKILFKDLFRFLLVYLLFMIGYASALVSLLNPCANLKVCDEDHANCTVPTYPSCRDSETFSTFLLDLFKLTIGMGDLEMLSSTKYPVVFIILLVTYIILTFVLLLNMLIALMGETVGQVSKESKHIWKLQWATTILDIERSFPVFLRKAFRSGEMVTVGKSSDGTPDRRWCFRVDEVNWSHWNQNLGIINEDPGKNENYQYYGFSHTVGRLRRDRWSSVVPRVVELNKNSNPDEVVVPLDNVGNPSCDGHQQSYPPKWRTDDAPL

Compound | EC50 (TRPV4 channel receptors) [nM] | EC50 (TRPV4 channel receptor) [nM]
CC(C)C[C@H](NC(=O)c1cc2ccccc2s1)C(=O)N1CCN(CCNS(=O)(=O)c2ccc(Cl)cc2Cl)CC1 [Example 1, N-((1S)-1-{[4-(2-{[(2,4-Dichlorophenyl)sulfonyl]amino}ethyl)-1-piperazinyl]carbonyl}-3-methylbutyl)-1-benzothiophene-2-carboxamide] | 90 to 5010 | 100 to 794
CC(C)C[C@H](NC(=O)c1cc2ccccc2s1)C(=O)N1CCN(C(=O)[C@H](C)NS(=O)(=O)c2ccc(Cl)cc2Cl)CC1 [Example 9, N-((1S)-1-{[4-((2S)-2-{[(2,4-dichlorophenyl)sulfonyl]amino}propanoyl)-1-piperazinyl]carbonyl}-3-methylbutyl)-1-benzothiophene-2-carboxamide] | 0.1 to 19 | < 7.94
CC(C)C[C@H](NC(=O)c1cc2ccccc2s1)C(=O)N1CCN(C(=O)CNS(=O)(=O)c2ccc(Cl)cc2Cl)CC1 [Example 3, N-((1S)-1-{[4-({[(2,4-Dichlorophenyl)sulfonyl]amino}acetyl)-1-piperazinyl]carbonyl}-3-methylbutyl)-1-benzothiophene-2-carboxamide] | 20 to 89 | 10 to 79.4
